Measurements as given in patent publication US20230265116A1, “DEGRADATION OF (EGFR) BY CONJUGATION OF EGFR INHIBITORS WITH E3 LIGASE LIGAND AND METHODS OF USE” (BEIGENE, LTD., priority 2020, published 2023).

Experiments:
Format in all cases: cell-based
[1] = system: EGFR Del19/T790M/C797S (BaF3-DTC cells); test: EGFR degradation HTRF assay, BaF3-DTC cells; conditions: 16h treatment; for DTC Dmax (%): maximum percentage of degradation; for DC50: read-out: DTC DC50
Procedure, shortened: (§1)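 EGFR remaining after a 16 h, 37 °C exposure (8 doses, 5-fold steps from 10 uM final, 0.2% DMSO) was quantified by HTRF antibodies in cell lysate. Percent inhibition relative to DMSO control was fitted by four-parameter logistic to give DC50; Dmax denotes maximal degradation.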

[2] = molecular target: T1, EGFR (HCC827 cells) (Homo sapiens, UniProt P00533, DEL746-750); test: EGFR degradation HTRF assay, HCC827 cells; conditions: HCC827, 16h treatment; for Dmax: maximum percentage of degradation
T1 construct: endogenous in cells; host or cells: HCC827
Procedure, shortened: as §1

[3] = molecular target: T2, EGFR L858R/T790M/C797S (BaF3-LTC cells) (Homo sapiens, UniProt P00533, C797S/L858R/T790M); test: EGFR degradation HTRF assay, BaF3-LTC cells; conditions: BaF3-LTC, 16h treatment; for Dmax: maximum percentage of degradation, read-out: LTC Dmax (%); for DC50: read-out: LTC DC50
T2 construct: expressed in transfected cells; host or cells: BaF3
Procedure, shortened: as §1

[4] = molecular target: T3, EGFR L858R/T790M (H1975-clone #36, homozygous) (Homo sapiens, UniProt P00533, L858R/T790M); test: EGFR degradation HTRF assay, H1975-clone #36 cells; conditions: H1975 #36, 16h treatment; for Dmax: NCI-H1975, maximum percentage of degradation
T3 construct: designed to specifically target WT EGFR but preserve the L858R/T790M copy; host or cells: H1975-clone #36
Procedure, shortened: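 Eight-point, 5-fold series starting at 10 uM (0.2% DMSO) applied for 16 h, 37 °C, to a WT-EGFR-knockout H1975 clone carrying only L858R/T790M. Lysates read by HTRF overnight. Degradation percentage relative to DMSO control fitted for DC50, with Dmax as maximum degradation.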

[5] = molecular target: T4, EGFR WT (BaF3 WT cells) (Homo sapiens, UniProt P00533); test: EGFR degradation HTRF assay, BaF3 WT cells; conditions: BaF3 WT, 16h treatment; for Dmax: maximum percentage of degradation, read-out: WT Dmax (%)
T4 construct: expressed in transfected cells; host or cells: BaF3
Experimental: BaF3 WT(wild type), BaF3-LTC(L858R/T790M/C797S) and BaF3-DTC(Del19/T790M/C797S) cells are treated with compounds diluted in 0.2% DMSO cell culture medium and incubate for 16h, 37° C., 5% CO2, H1975-#36, H1975-#28, H1975-#23 and HCC827 cells are treated with compounds diluted in 0.2% DMSO cell culture medium on day 2, incubate for 16h, 37° C., 5% CO2.the final concentriation of compounds in all assay is start with 10 uM, 5-fold dilution, total 8 doses were included.
After 16h treatment, add HTRF lysis buffer to each well; seal the plate and incubate 1 hour at room temperature on a plate shaker; Once the cells are lysed, 16 μL of cell lysate are transferred to a PE 384-well HTRF detection plate; 4 μL of pre-mixed HTRF antibodies are added to each well; Cover the plate with a plate sealer, spin 1000 rpm for 1 min, Incubate overnight at room temperature; Read on BMG PheraStar with HTRF protocol (337 nm-665 nm-620 nm).
The inhibition (degradation) percentage of the compound was calculated by the following equation: Inhibition percentage of Compound=100-100×(Signal-low control)/(High control-low control), wherein signal=each test compound group
High control=Cell group with added DMSO and without compound, indicating microplate readings without EGFR degradation;
Dmax is the maximum percentage of inhibition (degradation).
The IC50 (DC50) value of a compound can be obtained by fitting the following equation
Y=Bottom+(TOP−Bottom)/(1+((IC50/X)^hillslope))
Wherein, X and Y are known values, and IC50, Hillslope, Top and Bottom are the parameters obtained by fitting with software. Y is the inhibition percentage (calculated from the equation), X is the concentration of the compound; IC50 is the concentration of the compound when the 50% inhibition is reached. The smaller the IC50 value is, the stronger the inhibitory ability of the compound is. Vice versa, the higher the IC50 value is, the weaker the inhibitory ability of the compound is; Hillslope represents the slope of the fitted curve, generally around 1*; Bottom represents the minimum value of the curve obtained by data fitting, which is generally 0%±20%; Top represents the maximum value of the curve obtained by data fitting, which is generally 100%±20%. The experimental data were fitted by calculating and analyzing with Dotmatics data analysis software.

T2 sequence (P00533 25-1210 T790M/C797S/L858R): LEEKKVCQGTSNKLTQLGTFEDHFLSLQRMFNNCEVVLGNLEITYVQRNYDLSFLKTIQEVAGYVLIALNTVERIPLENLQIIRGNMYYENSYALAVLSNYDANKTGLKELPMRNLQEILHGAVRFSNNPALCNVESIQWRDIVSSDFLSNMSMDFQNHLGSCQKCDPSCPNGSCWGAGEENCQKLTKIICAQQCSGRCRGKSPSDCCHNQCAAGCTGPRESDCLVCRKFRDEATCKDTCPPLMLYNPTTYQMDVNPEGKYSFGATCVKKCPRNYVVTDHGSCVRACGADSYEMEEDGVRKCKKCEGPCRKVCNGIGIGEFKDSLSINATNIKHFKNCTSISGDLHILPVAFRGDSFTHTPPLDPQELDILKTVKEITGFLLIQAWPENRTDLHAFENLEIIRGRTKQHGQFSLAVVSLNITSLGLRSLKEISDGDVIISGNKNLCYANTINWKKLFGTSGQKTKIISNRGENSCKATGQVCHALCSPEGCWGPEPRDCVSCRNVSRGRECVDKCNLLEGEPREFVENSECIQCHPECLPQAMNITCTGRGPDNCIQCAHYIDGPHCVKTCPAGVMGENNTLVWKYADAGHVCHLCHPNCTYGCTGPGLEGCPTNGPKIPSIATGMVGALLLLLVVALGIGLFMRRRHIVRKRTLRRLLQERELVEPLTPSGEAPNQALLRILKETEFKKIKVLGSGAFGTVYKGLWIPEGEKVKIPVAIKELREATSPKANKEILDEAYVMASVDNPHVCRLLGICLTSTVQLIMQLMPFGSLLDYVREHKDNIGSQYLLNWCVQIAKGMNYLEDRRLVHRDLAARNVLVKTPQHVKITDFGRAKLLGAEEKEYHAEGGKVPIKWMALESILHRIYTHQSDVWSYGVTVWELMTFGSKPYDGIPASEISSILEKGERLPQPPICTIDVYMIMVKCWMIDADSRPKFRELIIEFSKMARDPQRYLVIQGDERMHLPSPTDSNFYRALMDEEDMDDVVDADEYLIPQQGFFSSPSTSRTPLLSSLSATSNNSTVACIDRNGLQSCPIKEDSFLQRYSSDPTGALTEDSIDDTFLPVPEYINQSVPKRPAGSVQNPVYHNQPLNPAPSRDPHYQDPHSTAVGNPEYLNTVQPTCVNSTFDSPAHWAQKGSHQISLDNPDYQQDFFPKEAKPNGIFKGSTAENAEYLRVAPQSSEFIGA
T3 sequence (P00533 25-1210 T790M/L858R): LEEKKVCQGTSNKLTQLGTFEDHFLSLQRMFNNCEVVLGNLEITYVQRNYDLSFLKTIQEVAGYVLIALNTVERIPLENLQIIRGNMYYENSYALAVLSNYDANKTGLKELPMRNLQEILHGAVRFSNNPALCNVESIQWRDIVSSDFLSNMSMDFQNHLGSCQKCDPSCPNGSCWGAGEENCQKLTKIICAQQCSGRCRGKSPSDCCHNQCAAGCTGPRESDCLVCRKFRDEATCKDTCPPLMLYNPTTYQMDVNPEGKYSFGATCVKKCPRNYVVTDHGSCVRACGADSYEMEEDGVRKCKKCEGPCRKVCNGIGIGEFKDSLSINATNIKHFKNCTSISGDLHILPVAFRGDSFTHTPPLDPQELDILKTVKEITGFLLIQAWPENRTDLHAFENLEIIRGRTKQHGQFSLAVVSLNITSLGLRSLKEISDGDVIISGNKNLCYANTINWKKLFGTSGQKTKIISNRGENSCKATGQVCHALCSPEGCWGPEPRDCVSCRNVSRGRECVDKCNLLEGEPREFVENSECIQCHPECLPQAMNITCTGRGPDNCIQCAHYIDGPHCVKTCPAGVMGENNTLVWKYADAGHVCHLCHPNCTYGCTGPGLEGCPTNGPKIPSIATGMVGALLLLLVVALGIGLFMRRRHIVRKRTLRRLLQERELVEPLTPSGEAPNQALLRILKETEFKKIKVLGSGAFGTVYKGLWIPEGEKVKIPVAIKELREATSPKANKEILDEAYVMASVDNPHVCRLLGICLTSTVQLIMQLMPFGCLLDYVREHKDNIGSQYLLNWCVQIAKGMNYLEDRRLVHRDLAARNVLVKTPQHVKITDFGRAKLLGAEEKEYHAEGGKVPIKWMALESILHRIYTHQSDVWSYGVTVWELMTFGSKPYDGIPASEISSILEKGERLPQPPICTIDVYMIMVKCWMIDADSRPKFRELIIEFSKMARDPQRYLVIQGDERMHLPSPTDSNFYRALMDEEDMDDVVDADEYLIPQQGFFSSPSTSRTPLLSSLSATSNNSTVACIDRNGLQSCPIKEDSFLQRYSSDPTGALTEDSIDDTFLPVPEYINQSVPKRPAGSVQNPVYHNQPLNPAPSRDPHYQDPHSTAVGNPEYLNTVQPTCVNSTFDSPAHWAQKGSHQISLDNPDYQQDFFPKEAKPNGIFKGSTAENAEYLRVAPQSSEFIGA
T4 sequence (P00533 25-1210): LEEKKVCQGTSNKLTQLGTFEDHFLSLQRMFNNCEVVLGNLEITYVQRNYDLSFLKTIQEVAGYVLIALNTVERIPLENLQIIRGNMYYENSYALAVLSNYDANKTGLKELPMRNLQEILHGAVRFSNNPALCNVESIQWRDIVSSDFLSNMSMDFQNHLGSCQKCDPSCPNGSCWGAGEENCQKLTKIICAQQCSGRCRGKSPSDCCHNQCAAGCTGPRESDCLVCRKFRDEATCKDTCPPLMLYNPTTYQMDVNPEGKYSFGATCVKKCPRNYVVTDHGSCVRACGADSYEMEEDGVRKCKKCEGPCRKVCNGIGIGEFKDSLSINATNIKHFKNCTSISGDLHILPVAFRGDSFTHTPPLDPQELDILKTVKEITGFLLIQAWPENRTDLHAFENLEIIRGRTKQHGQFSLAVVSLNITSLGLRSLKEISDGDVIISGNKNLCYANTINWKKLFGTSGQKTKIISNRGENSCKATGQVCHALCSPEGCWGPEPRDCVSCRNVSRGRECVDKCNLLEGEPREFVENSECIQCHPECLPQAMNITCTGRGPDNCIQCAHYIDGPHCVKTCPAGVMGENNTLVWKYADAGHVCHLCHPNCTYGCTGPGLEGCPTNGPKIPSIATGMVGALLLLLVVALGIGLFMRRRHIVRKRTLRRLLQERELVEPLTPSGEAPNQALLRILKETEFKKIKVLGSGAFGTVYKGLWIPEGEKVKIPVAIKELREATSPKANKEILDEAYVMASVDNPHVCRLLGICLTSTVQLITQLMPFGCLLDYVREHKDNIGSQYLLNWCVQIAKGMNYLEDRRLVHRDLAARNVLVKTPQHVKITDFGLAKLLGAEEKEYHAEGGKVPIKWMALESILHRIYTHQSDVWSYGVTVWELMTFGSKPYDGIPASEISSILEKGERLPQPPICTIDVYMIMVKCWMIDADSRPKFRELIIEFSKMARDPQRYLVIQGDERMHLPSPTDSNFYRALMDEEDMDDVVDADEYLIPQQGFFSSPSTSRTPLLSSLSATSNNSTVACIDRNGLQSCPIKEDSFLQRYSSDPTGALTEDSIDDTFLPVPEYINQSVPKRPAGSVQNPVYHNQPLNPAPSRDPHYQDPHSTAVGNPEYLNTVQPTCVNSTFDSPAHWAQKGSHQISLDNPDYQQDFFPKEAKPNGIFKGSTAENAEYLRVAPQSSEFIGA
T1 sequence (P00533 with tags, fused parts or gaps DEL746-750): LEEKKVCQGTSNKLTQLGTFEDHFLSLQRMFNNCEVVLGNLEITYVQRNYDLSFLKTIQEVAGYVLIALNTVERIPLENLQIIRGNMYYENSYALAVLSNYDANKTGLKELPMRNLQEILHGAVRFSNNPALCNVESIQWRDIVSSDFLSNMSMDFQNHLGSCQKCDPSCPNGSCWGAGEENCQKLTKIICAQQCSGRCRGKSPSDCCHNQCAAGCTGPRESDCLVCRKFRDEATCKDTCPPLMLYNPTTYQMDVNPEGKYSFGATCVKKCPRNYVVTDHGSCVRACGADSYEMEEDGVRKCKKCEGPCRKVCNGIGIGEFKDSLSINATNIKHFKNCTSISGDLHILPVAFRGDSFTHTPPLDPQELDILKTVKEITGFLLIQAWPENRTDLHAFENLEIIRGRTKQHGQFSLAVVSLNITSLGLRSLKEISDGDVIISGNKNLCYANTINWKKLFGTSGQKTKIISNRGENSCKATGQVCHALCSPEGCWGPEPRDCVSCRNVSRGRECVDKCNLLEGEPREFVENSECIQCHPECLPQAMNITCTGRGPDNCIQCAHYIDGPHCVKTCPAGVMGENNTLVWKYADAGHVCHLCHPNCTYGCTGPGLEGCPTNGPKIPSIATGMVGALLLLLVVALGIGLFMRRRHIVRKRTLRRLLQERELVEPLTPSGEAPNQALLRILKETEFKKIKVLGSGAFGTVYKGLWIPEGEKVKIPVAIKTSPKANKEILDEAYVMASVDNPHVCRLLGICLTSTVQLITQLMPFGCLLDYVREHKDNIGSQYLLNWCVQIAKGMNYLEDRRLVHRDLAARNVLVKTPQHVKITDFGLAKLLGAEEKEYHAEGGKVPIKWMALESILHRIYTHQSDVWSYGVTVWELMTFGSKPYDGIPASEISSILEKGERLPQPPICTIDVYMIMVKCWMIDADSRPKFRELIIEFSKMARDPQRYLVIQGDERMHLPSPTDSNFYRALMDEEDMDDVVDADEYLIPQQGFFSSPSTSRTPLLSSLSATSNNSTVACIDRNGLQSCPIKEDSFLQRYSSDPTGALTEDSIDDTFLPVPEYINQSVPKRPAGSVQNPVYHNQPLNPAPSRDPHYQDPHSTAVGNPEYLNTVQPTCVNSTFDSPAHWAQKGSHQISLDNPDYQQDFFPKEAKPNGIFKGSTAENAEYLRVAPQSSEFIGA

SMILES | DTC Dmax (%) [1] | DC50 [1] | DC50 [2] | Dmax [2] | Dmax [3] | DC50 [3] | DC50 [4] | Dmax [4] | DC50 [5] | Dmax [5]
COc1cc(N2CCC(N3CCN(C(=O)CCN4CCC(c5ccc(C6CCC(=O)NC6=O)cc5)CC4)CC3)CC2)ccc1Nc1ncc(Cl)c(Nc2ccccc2N(C)S(C)(=O)=O)n1 (stereo not drawn) [Example 123, N-(2-((5-chloro-2-((4-(4-(4-(3-(4-(4-(2,6-dioxopiperidin-3-yl)phenyl)piperidin-1-yl)propanoyl)piperazin-1-yl)piperidin-1-yl)-2-methoxyphenyl)amino)pyrimidin-4-yl)amino)phenyl)-N-methylmethanesulfonamide] | 83.94% | 273 nM | 15.9 nM | 88.8% | 21.2% | > 10000 nM | 12.4 nM | 79.7% | > 10000 nM | 21.6%
CCc1cc(Nc2ncc(Br)c(Nc3ccc4nccnc4c3P(C)(C)=O)n2)c(OC)cc1N1CCC(N2CCN(C(=O)[C@@H]3CCN(c4ccc5c(c4)C(=O)N(C4CCC(=O)NC4=O)C5=O)C3)CC2)CC1 (stereo partly drawn) [Example 65, 5-((R)-3-(4-(1-(4-((5-bromo-4-((5-(dimethylphosphoryl)quinoxalin-6-yl)amino)pyrimidin-2-yl)amino)-2-ethyl-5-methoxyphenyl)piperidin-4-yl)piperazine-1-carbonyl)pyrrolidin-1-yl)-2-(2,6-dioxopiperidin-3-yl)isoindoline-1,3-dione] | 80.45% | 8.05 nM | 2.53 nM | 73.9% | 75.5% | 14.2 nM | 2.31 nM | 85.6% | > 10000 nM | 15.4%
CCc1cc(Nc2ncc(Br)c(Nc3ccc4nccnc4c3P(C)(C)=O)n2)c(OC)cc1N1CCC(N2CCN(CC3CCN(c4ccc5c(c4)C(=O)N(C4CCC(=O)NC4=O)C5=O)CC3)CC2)CC1 (stereo not drawn) [Example 272, 5-(4-((4-(1-(4-((5-bromo-4-((5-(dimethylphosphoryl)quinoxalin-6-yl)amino)pyrimidin-2-yl)amino)-2-ethyl-5-methoxyphenyl)piperidin-4-yl)piperazin-1-yl)methyl)piperidin-1-yl)-2-(2,6-dioxopiperidin-3-yl)isoindoline-1,3-dione] | 91.58% | 21.9 nM | 5.35 nM | 86.2% | 90.9% | 35.6 nM | 10.5 nM | 75% | > 10000 nM | 12.1%
CCc1cc(Nc2ncc(Br)c(Nc3ccc4nccnc4c3P(C)(C)=O)n2)c(OC)cc1N1CCC(N2CCN(CCCN3CCN(c4ccc5c(c4)C(=O)N(C4CCC(=O)NC4=O)C5=O)CC3)CC2)CC1 (stereo not drawn) [Example 60, 5-(4-(3-(4-(1-(4-((5-bromo-4-((5-(dimethylphosphoryl)quinoxalin-6-yl)amino)pyrimidin-2-yl)amino)-2-ethyl-5-methoxyphenyl)piperidin-4-yl)piperazin-1-yl)propyl)piperazin-1-yl)-2-(2,6-dioxopiperidin-3-yl)isoindoline-1,3-dione] | 94.93% | 42.2 nM | 4.8 nM | 86.8% | 91.2% | 89 nM | 16.5 nM | 73.4% | 8860 nM | 51.6%
CCc1cc(Nc2ncc(Br)c(Nc3ccc4nccnc4c3P(C)(C)=O)n2)c(OC)cc1N1CCC(N2CCN(CCC3CCN(c4ccc(C5CCC(=O)NC5=O)c(C#N)c4)CC3)CC2)CC1 (stereo not drawn) [Example 34, 5-(4-(2-(4-(1-(4-((5-bromo-4-((5-(dimethylphosphoryl)quinoxalin-6-yl)amino)pyrimidin-2-yl)amino)-2-ethyl-5-methoxyphenyl)piperidin-4-yl)piperazin-1-yl)ethyl)piperidin-1-yl)-2-(2,6-dioxopiperidin-3-yl)benzonitrile] | 82.04% | 15.1 nM | 6.2 nM | 80.8% | 81.2% | 21.6 nM | 8.6 nM | 71% | > 10000 nM | 26.2%
CCc1cc(Nc2ncc(Br)c(Nc3ccc4nccnc4c3P(C)(C)=O)n2)c(OC)cc1N1CCC(N2CCN(CCc3ccc(NC4CCC(=O)NC4=O)cc3)CC2)CC1 (stereo not drawn) [Example 48, 3-((4-(2-(4-(1-(4-((5-bromo-4-((5-(dimethylphosphoryl)quinoxalin-6-yl)amino)pyrimidin-2-yl)amino)-2-ethyl-5-methoxyphenyl)piperidin-4-yl)piperazin-1-yl)ethyl)phenyl)amino)piperidine-2,6-dione] | 92.6% | 7.6 nM | 4.42 nM | 76.6% | 90.4% | 24.3 nM | 9.23 nM | 64.5% | 2920 nM | 52.6%
CCc1cc(Nc2ncc(Br)c(Nc3ccc4nccnc4c3P(C)(C)=O)n2)c(OC)cc1N1CCC(N2CCN(CCc3ccc(C4CCC(=O)NC4=O)c(F)c3)CC2)CC1 (stereo not drawn) [Example 5, 3-(4-(2-(4-(1-(4-((5-bromo-4-((5-(dimethylphosphoryl)quinoxalin-6-yl)amino)pyrimidin-2-yl)amino)-2-ethyl-5-methoxyphenyl)piperidin-4-yl)piperazin-1-yl)ethyl)-2-fluorophenyl)piperidine-2,6-dione] | 96.75% | 4.96 nM | 2.56 nM | 83.9% | 90.4% | 13.1 nM | 4.66 nM | 84.1% | > 10000 nM | 47.9%
CP(C)(=O)c1c(Nc2nc(Nc3ccc(N4CCN(C5CN(CCC6CCN(c7ccc(C8CCC(=O)NC8=O)c(F)c7)CC6)C5)CC4)c(F)c3)ncc2Br)ccc2nccnc12 (stereo not drawn) [Example 203, 3-(4-(4-(2-(3-(4-(4-((5-bromo-4-((5-(dimethylphosphoryl)quinoxalin-6-yl)amino)pyrimidin-2-yl)amino)-2-fluorophenyl)piperazin-1-yl)azetidin-1-yl)ethyl)piperidin-1-yl)-2-fluorophenyl)piperidine-2,6-dione] | 92.4% | 13.5 nM | 9.06 nM | 89.9% | 82.1% | 17 nM | 7.24 nM | 95.8% | > 10000 nM | 35.3%
CCc1cc(Nc2ncc(Br)c(Nc3ccc4nccnc4c3P(C)(C)=O)n2)c(OC)cc1N1CCC(N2CCN(CCCC3CN(c4ccc5c(c4)C(=O)N(C4CCC(=O)NC4=O)C5=O)C3)CC2)CC1 (stereo not drawn) [Example 56, 5-(3-(3-(4-(1-(4-((5-bromo-4-((5-(dimethylphosphoryl)quinoxalin-6-yl)amino)pyrimidin-2-yl)amino)-2-ethyl-5-methoxyphenyl)piperidin-4-yl)piperazin-1-yl)propyl)azetidin-1-yl)-2-(2,6-dioxopiperidin-3-yl)isoindoline-1,3-dione] | 82.17% | 9.52 nM | 2.63 nM | 93.4% | 79.5% | 31.4 nM | 6.5 nM | 88.8% | > 10000 nM | 16.9%
